Assay results: US20230047816A1 (priority 2018, published 2023)

Target: Recombinant full length human PFKFB3 (Homo sapiens, UniProt Q16875)
Assay: PFKFB3 kinase activity assay (ADP production, ADP-Glo)

Sequence of Recombinant full length human PFKFB3 (Q16875 whole entry): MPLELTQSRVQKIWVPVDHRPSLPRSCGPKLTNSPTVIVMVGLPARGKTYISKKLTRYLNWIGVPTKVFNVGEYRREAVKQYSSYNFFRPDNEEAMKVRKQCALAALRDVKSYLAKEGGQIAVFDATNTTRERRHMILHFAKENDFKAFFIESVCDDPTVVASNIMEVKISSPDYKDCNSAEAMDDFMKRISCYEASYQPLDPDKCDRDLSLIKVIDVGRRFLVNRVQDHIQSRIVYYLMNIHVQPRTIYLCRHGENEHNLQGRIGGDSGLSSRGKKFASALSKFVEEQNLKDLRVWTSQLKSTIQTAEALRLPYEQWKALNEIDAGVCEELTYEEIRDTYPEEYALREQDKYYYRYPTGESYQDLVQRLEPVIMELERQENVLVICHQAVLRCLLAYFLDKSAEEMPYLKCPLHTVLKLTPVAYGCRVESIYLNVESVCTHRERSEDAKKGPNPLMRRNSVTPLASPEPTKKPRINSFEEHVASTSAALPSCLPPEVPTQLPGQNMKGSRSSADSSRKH

| SMILES | IC50 [µM] |
| --- | --- |
| COc1ccc(-c2c(C)sc(NC(=O)c3ccc(C(=O)O)cc3C(=O)NCCN(C)C)c2C#N)cc1 [Example 14, 4-{[3-cyano-4-(4-methoxyphenyl)-5-methylthiophen-2-yl]carbamoyl}-3-{[2-(dimethylamino)ethyl]carbamoyl}benzoic acid] | < 20 |
| CN(C)CCCOC(=O)c1ccc(-c2ccc(Cl)cc2Cl)cc1NC(=O)c1cc(O)c(C(=O)O)cc1C(=O)O [Example 51, 4-[(2′,4′-dichloro-4-{[3-(dimethylamino)propoxy]carbonyl}-[1,1′-biphenyl]-3-yl)carbamoyl]-6-hydroxybenzene-1,3-dicarboxylic acid] | < 0.5 |
| NC(=O)c1ccc(-c2ccc(F)c(F)c2)cc1N1Cc2ccc(-c3nnn[nH]3)cc2C1=O [Compound 101, 3′,4′-Difluoro-3-[1-oxo-6-(1H-tetrazol-5-yl)-1,3-dihydroisoindol-2-yl]biphenyl-4-carboxylic acid amide] | 5 to 20 |
| O=C(O)c1cc(-c2cnn[nH]2)ccc1CNc1cc(-c2ccc(F)c(F)c2)ccc1C(=O)O [Example 6, 3-({[2-carboxy-4-(2H-1,2,3-triazol-4-yl)phenyl]methyl}amino)-3′,4′-difluoro-[1,1′-biphenyl]-4-carboxylic acid] | < 0.5 |
| O=C(O)c1ccc2c(c1)C(=O)N(c1cc(-c3ccc(F)cc3F)ccc1C(=O)O)C2=O [Example 53] | < 0.5 |
| Cn1cncc1-c1ccc(N2C(=O)c3ccc(-c4c[nH]nn4)cc3C2=O)c(C(=O)O)c1 [Example 61] | 5 to 20 |
| NC(=O)c1ccc(-c2ccccc2)cc1N1C(=O)c2ccc(-c3c[nH]nn3)cc2C1=O [Compound 93, 3-[1,3-Dioxo-5-(1H-[1,2,3]triazol-4-yl)-1,3-dihydroisoindol-2-yl]biphenyl-4-carboxylic acid amide] | 5 to 20 |
| NC(=O)c1ccc2c(c1)C(=O)N(c1cc(-c3ccccc3)ccc1C(=O)O)C2=O [Example 28] | 0.5 to 2 |
| COCCOC(=O)c1ccc(-c2ccccc2)cc1N1C(=O)c2ccc(-c3c[nH]nn3)cc2C1=O [Compound 69, 3-[1,3-Dioxo-5-(1H-[1,2,3]triazol-4-yl)-1,3-dihydroisoindol-2-yl]biphenyl-4-carboxylic acid 2-methoxy-ethyl ester] | 2 to 5 |
| O=C(O)c1ccc(C(=O)O)c(C(=O)Nc2nc(-c3ccccc3)cs2)c1 [Example 40, 2-[(4-phenyl-1,3-thiazol-2-yl)carbamoyl]benzene-1,4-dicarboxylic acid] | < 20 |
| O=C(OCCN1CCCC1)c1ccc(-c2ccccc2)cc1N1C(=O)c2ccc(-c3c[nH]nn3)cc2C1=O [Compound 68, 3-[1,3-Dioxo-5-(1H-[1,2,3]triazol-4-yl)-1,3-dihydroisoindol-2-yl]biphenyl-4-carboxylic acid 2-pyrrolidin-1-yl-ethyl ester] | 2 to 5 |
| O=C1c2ccc(-c3c[nH]nn3)cc2C(=O)N1c1ccc(-c2ccccc2)cn1 [Compound 86, 2-(5-Phenylpyridin-2-yl)-5-(1H-[1,2,3]triazol-4-yl)-isoindole-1,3-dione] | < 20 |

More lines, now with the values ahead:

| IC50 [µM] | SMILES |
| --- | --- |
| 5 to 20 | COC(=O)c1ccc(-c2ccc(F)c(F)c2)cc1N1Cc2ccc(-c3nnn[nH]3)cc2C1=O [Compound 99, 3′,4′-Difluoro-3-[1-oxo-6-(1H-tetrazol-5-yl)-1,3-dihydroisoindol-2-yl]biphenyl-4-carboxylic acid methyl ester] |
| 5 to 20 | O=C(OCCN1CCCC1)c1cc(-c2ccccc2)ccc1N1C(=O)c2ccc(-c3c[nH]nn3)cc2C1=O [Compound 79, 4-[1,3-Dioxo-5-(1H-[1,2,3]triazol-4-yl)-1,3-dihydroisoindol-2-yl]biphenyl-3-carboxylic acid 2-pyrrolidin-1-yl-ethyl ester] |
| < 20 | COC(=O)c1ccc(-c2ccc(F)c(F)c2)cc1N1Cc2ccc(C(=O)NS(C)(=O)=O)cc2C1=O [Compound 105, 3′,4′-Difluoro-3-(6-methanesulfonylaminocarbonyl-1-oxo-1,3-dihydroisoindol-2-yl)biphenyl-4-carboxylic acid methyl ester] |
| 5 to 20 | COc1ccc(-c2c(C)sc(N3C(=O)c4ccc(C(=O)NS(=O)(=O)c5ccccc5)cc4C3=O)c2C#N)cc1 [Example 13, N-{2-[3-Cyano-4-(4-methoxyphenyl)-5-methylthiophen-2-yl]-1,3-dioxo-2,3-dihydro-1H-isoindole-5-carbonyl}-benzenesulfonamide] |
| < 0.5 | CC1(C)CCC(c2ccc(C(=O)O)c(NC(=O)c3cc(C(=O)O)c(F)cc3C(=O)O)c2)CC1 [Example 64, 2-{[2-carboxy-5-(4,4-dimethylcyclohexyl)phenyl]carbamoyl}-5-fluorobenzene-1,4-dicarboxylic acid] |
| < 20 | CNCCOC(=O)c1cc(-c2ccccc2)ccc1N1C(=O)c2ccc(-c3c[nH]nn3)cc2C1=O [Compound 81, 4-[1,3-Dioxo-5-(1H-[1,2,3]triazol-4-yl)-1,3-dihydroisoindol-2-yl]biphenyl-3-carboxylic acid 2-methylamino-ethyl ester] |
| 0.5 to 2 | O=C(O)c1ccc(-c2ccc(F)c(F)c2)cc1N1Cc2ccc(-c3nnn[nH]3)cc2C1=O [Compound 100, 3′,4′-Difluoro-3-[1-oxo-6-(1H-tetrazol-5-yl)-1,3-dihydroisoindol-2-yl]biphenyl-4-carboxylic Acid] |
| < 20 | CC(=O)Nc1ccc2c(c1)C(=O)N(c1cc(-c3ccc(F)c(F)c3)ccc1C(=O)O)C2 [Compound 130, 3-(6-Acetylamino-1-oxo-1,3-dihydroisoindol-2-yl)-3′,4′-difluoro-biphenyl-4-carboxylic Acid] |
| < 0.5 | O=C(O)c1cc(C(=O)O)c(C(=O)Nc2cc(-c3ccc(F)c(F)c3)ccc2O)cc1O [Example 27, 4-((3′,4′-difluoro-4-hydroxy-[1,1′-biphenyl]-3-yl)carbamoyl)-6-hydroxyisophthalic acid] |
| < 0.5 | CS(=O)(=O)NC(=O)c1ccc2c(c1)C(=O)N(c1cc(-c3ccccc3)ccc1C(=O)O)C2 [Compound 104, 3-(6-Methanesulfonylaminocarbonyl-1-oxo-1,3-dihydroisoindol-2-yl)biphenyl-4-carboxylic Acid] |
| < 20 | O=C1c2ccc(-c3c[nH]nn3)cc2C(=O)N1c1cc(-c2ccc(F)cc2)c(-c2ccccc2)cn1 [compound 146, 2-(4-(4-fluorophenyl)-5-phenylpyridin-2-yl)-5-(1H-1,2,3-triazol-4-yl)isoindoline-1,3-dione] |
| 5 to 20 | CC(C)OC(=O)c1ccc(-c2ccccc2)cc1N1C(=O)c2ccc(-c3nnn[nH]3)cc2C1=O [Compound 96, 3-[1,3-Dioxo-5-(1H-tetrazol-5-yl)-1,3-dihydroisoindol-2-yl]biphenyl-4-carboxylic acid isopropyl ester] |
| 5 to 20 | COc1ccc(-c2nnn[nH]2)c(N2C(=O)c3ccc(-c4c[nH]nn4)cc3C2=O)c1 [compound 154, 2-(2-(1H-tetrazol-5-yl)-5-methoxyphenyl)-5-(1H-1,2,3-triazol-4-yl)isoindoline-1,3-dione] |
| 0.5 to 2 | O=C(O)c1ccc(-c2ccc(F)c(F)c2)cc1N1Cc2ccc(-c3nn[nH]c3-c3ccccc3)cc2C1=O [compound 163, 3′,4′-difluoro-3-(1-oxo-6-(5-phenyl-1H-1,2,3-triazol-4-yl)isoindolin-2-yl)biphenyl-4-carboxylic acid] |
| < 0.5 | O=C(O)c1cc(-c2c[nH]cn2)ccc1N1C(=O)c2ccc(-c3c[nH]nn3)cc2C1=O [Example 60] |
